Data taken from patent US12643871B2, “Aryl formamide compound containing chiral sulfur oxide or salt thereof, preparation method, herbicidal composition and use thereof” (Qingdao Kingagroot Chemical Compound Co., Ltd., priority 2019, dated 2026).

Key:
[1] = system: Echinochloa crusgali; assay: Weeding effect in post-emergence stage; assay type: in vivo; details: 250 g/ha; 2 leaf stage; 15 days after application; fresh weight control rate
Description: (§1) The activity level criteria for harmful plant damage (i.e., growth control rate) are as follows: • Level 5: growth control rate is above 85%; • Level 4: growth control rate is greater than or equal to 60% and less than 85%; • Level 3: growth control rate is greater than or equal to 40% and less than 60%; • Level 2: growth control rate is greater than or equal to 20% and less than 40%; • Level 1: growth control rate is greater than or equal to 5% and less than 20%; • Level 0: growth control rate is less than 5%.
(§2) The above growth control rates are fresh weight control rates.
(§3) Experiment on weeding effect in post-emergence stage: monocotyledonous and dicotyledonous weed seeds (Descurainia sophia, Capsella bursa-pastoris, Galium aparine, Stellaria media, Lithospermum arvense, Rorippa indica, Alopecurus aequalis, Beckmannia syzigachne, Sclerochloa dura, Phleum paniculatum, Bromus japonicus, Aegilops tauschii, Phalaris arundinacea, Amaranthus retroflexus, Chenopodiaceae, Commelina communis, Sonchus arvensis, convolvulus arvensis, Cirsium setosum, Solanum nigrum, Acalypha australis, Digitaria sanguinalis, Echinochloa crusgalli, Setaria viridis, Setaria glauca, Leptochloa chinensis, Monochoria vaginalis, Sagittaria trifolia, Scirpus juncoides, Cyperus rotundus, Cyperus iria, Cyperus difformis, Fimbristylis, Portulaca oleracea, Xanthium sibiricum, Pharbitis nil) and major crop seeds (wheat, corn, rice, soybean, cotton, oilseed rape, millet, sorghum, potato, sesame, ricinus) were placed in plastic pots filled with soil, then covered with 0.5-2 cm of soil, allowed to grow in a good greenhouse environment. After 2 weeks of sowing, the test plants were treated in the 2 leaf stage. The tested compounds of the present invention were respectively dissolved in acetone, then added with Tween 80 and 1.5 liter/ha of emulsifiable concentrate of methyl oleate as synergist, diluted with a certain amount of water to obtain a solution with a certain concentration, and sprayed with a spray tower onto the plants. After the application, the plants were cultured for 15 days in the greenhouse, and then the experimental results of the weeding were counted. The doses of the used compounds were 500, 250, 125, 60, 30, 15 g/ha, and the averages were obtained by repeating for three times.

[2] = system: Amaranthus retroflexus; assay: Weeding effect in post-emergence stage; assay type: in vivo; details: 250 g/ha; 2 leaf stage; 15 days after application; fresh weight control rate
Description: as §1, §2, §3

Compound | weeding effect in post-emergence stage, activity level (growth control rate), Echinochloa crusgali [1] | weeding effect in post-emergence stage, activity level (growth control rate), Amaranthus retroflexus [2]
Cc1nnc(NC(=O)c2ccc(C(F)(F)F)c([S@+]([O-])CCC(C)(C)C)c2F)o1 [Compound 13] | 5 (Level 5: growth control rate is above 85%) | 5 (Level 5: growth control rate is above 85%)
CCCCCCC[S@@+]([O-])c1c(C(F)(F)F)ccc(C(=O)Nc2nnc(C)o2)c1F [Compound 14] | 5 (Level 5: growth control rate is above 85%) | 5 (Level 5: growth control rate is above 85%)
Cc1nnc(NC(=O)c2ccc(C(F)(F)F)c([S@+]([O-])CCC3CCCCC3)c2F)o1 [Compound 18] | 5 (Level 5: growth control rate is above 85%) | 5 (Level 5: growth control rate is above 85%)
Cc1nnc(NC(=O)c2ccc(C(F)(F)F)c([S+]([O-])C#N)c2F)o1 (centres unmarked) [Compound 51] | 5 (Level 5: growth control rate is above 85%) | 5 (Level 5: growth control rate is above 85%)
Cc1nnc(NC(=O)c2ccc(C(F)(F)F)c([S@@+]([O-])C(=O)c3ccco3)c2F)o1 [Compound 171] | 5 (Level 5: growth control rate is above 85%) | 5 (Level 5: growth control rate is above 85%)
Cc1nnc(NC(=O)c2ccc(C(F)(F)F)c([S@@+]([O-])C(=O)N(C)C)c2F)o1 [Compound 176] | 5 (Level 5: growth control rate is above 85%) | 5 (Level 5: growth control rate is above 85%)
Cc1nnc(NC(=O)c2ccc(C(F)(F)F)c([S@+]([O-])CC(=O)N(C)C)c2F)o1 [Compound 178] | 5 (Level 5: growth control rate is above 85%) | 5 (Level 5: growth control rate is above 85%)
Cc1nnc(NC(=O)c2ccc(C(F)(F)F)c([S@+]([O-])CC=O)c2F)o1 [Compound 191] | 5 (Level 5: growth control rate is above 85%) | 5 (Level 5: growth control rate is above 85%)
Cc1nnc(NC(=O)c2ccc(C(F)(F)F)c([S@+]([O-])CCC=O)c2F)o1 [Compound 192] | 5 (Level 5: growth control rate is above 85%) | 5 (Level 5: growth control rate is above 85%)
CC(=O)C[S@@+]([O-])c1c(C(F)(F)F)ccc(C(=O)Nc2nnc(C)o2)c1F [Compound 193] | 5 (Level 5: growth control rate is above 85%) | 5 (Level 5: growth control rate is above 85%)
COC(=O)C[S@@+]([O-])c1c(C(F)(F)F)ccc(C(=O)Nc2nnc(C)o2)c1F [Compound 196] | 5 (Level 5: growth control rate is above 85%) | 5 (Level 5: growth control rate is above 85%)
Cc1nnc(NC(=O)c2ccc(C(F)(F)F)c([S@+]([O-])CC(=O)OC(C)(C)C)c2F)o1 [Compound 199] | 5 (Level 5: growth control rate is above 85%) | 5 (Level 5: growth control rate is above 85%)
Cc1nnc(NC(=O)c2ccc(C(F)(F)F)c([S@@+]([O-])COC(=O)C(C)(C)C)c2F)o1 [Compound 202] | 5 (Level 5: growth control rate is above 85%) | 5 (Level 5: growth control rate is above 85%)
